Legend:
HIS-TGFβR1 T204D = molecular target: T1, HIS-TGFβR1 T204D (Homo sapiens, UniProt P36897, T204D); experiment: HTRF probe-displacement assay, HIS-TGFβR1 T204D; format: binding; conditions: read-out: TGFβR1 (μM) IC50
T1 sequence (P36897 34-503 T204D): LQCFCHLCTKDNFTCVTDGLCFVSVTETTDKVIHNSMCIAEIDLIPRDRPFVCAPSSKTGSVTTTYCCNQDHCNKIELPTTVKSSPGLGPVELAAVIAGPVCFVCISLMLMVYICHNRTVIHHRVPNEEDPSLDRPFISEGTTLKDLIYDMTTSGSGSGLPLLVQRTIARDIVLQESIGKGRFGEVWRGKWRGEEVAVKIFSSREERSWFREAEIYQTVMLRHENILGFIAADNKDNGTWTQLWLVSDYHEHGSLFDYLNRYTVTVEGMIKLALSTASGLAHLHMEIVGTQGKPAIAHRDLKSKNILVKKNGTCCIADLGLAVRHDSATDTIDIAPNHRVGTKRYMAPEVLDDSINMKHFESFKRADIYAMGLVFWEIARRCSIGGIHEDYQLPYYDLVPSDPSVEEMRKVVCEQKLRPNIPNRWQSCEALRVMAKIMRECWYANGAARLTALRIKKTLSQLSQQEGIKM

HIS-TGFβR2 WT = HIS-TGFβR2 WT (Homo sapiens, UniProt P37173); experiment: HTRF probe-displacement assay, HIS-TGFβR2 WT; format: binding
HIS-TGFβR2 WT, sequence (P37173 23-567): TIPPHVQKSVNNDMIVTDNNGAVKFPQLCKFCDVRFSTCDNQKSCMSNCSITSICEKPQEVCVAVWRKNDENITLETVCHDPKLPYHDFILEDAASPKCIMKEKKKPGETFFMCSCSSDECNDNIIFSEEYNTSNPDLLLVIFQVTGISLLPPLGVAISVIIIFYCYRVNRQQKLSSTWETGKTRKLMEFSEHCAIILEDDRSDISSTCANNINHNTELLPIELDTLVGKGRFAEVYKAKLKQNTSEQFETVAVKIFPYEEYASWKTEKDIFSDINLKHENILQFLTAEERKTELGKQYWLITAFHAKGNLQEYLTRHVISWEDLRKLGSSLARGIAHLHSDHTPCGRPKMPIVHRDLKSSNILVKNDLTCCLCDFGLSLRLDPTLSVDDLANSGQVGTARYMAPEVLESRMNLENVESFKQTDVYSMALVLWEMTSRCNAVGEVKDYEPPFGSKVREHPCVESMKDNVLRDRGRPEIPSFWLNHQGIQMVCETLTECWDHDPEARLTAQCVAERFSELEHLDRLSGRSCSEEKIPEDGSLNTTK

Row | SMILES | IC50 (HIS-TGFβR1 T204D) [µM] | IC50 (HIS-TGFβR2 WT) [µM]
1 | CC(=O)Nc1cc(-c2[nH]c3c(C(O)C(F)F)ccnc3c2-c2cccc(C(F)F)n2)ccn1 (stereo not drawn) [Example 148, N-{4-[7-(2,2-Difluoro-1-hydroxyethyl)-3-[6-(difluoromethyl)pyridin-2-yl]-1H-pyrrolo[3,2-b]pyridin-2-yl]pyridin-2-yl}acetamide] | 0.001 | 0.484
2 | CC(=O)Nc1cc(-c2[nH]c3c(CN4CC(F)(F)C4)ccnc3c2-c2cccc(C(F)F)n2)ccn1 [Example 152, N-(4-{7-[(3,3-Difluoroazetidin-1-yl)methyl]-3-[6-(difluoromethyl)pyridin-2-yl]-1H-pyrrolo[3,2-b]pyridin-2-yl}pyridin-2-yl)acetamide] | 0.002 | 4.09
3 | CC(=O)Nc1cc(-c2[nH]c3c(-c4c(C)noc4C)ccnc3c2-c2cccc(C(F)F)n2)ccn1 [Example 130, N-(4-{3-[6-(Difluoromethyl)pyridin-2-yl]-7-(dimethyl-1,2-oxazol-4-yl)-1H-pyrrolo[3,2-b]pyridin-2-yl}pyridin-2-yl)acetamide] | 0.004 | > 15
4 | COc1ccc(-c2c(-c3ccnc(NCC(C)C)c3)[nH]c3cc(Cl)cnc23)nc1 [Example 243, 4-(6-Chloro-3-(5-methoxypyridin-2-yl)-1H-pyrrolo[3,2-b]pyridin-2-yl)-N-isobutylpyridin-2-amine] | 0.361 | ≥ 15
5 | CC(=O)Nc1cc(-c2[nH]c3cc(Cl)cnc3c2-c2cccc(Cl)n2)ccn1 [Example 41, N-{4-[3-(6-Chloropyridin-2-yl)-6-chloro-1H-pyrrolo[3,2-b]pyridin-2-yl]pyridin-2-yl}acetamide] | 0.002 | 0.13
6 | CC(=O)Nc1cc(-c2[nH]c3cccnc3c2-c2cccc3ccncc23)ccn1 [Example 19, N-{4-[3-(Isoquinolin-8-yl)-1H-pyrrolo[3,2-b]pyridin-2-yl]pyridin-2-yl}acetamide] | 0.023 | 0.19
7 | COc1ccc(-c2c(-c3ccnc(NC(C)=O)c3)[nH]c3cc(Cl)cnc23)nc1C [Example 170, N-(4-(6-Chloro-3-(5-methoxy-6-methylpyridin-2-yl)-1H-pyrrolo[3,2-b]pyridin-2-yl)pyridin-2-yl)acetamide] | 0.032 | > 15
8 | CC(=O)Nc1cc(-c2[nH]c3c(Cl)ccnc3c2-c2ccc(F)cn2)ccn1 [Example 61, N-{4-[7-Chloro-3-(5-fluoropyridin-2-yl)-1H-pyrrolo[3,2-b]pyridin-2-yl]pyridin-2-yl}acetamide] | 0.005 | 0.98
9 | COc1ccc(-c2c(-c3ccnc(N)c3)[nH]c3cc(Cl)cnc23)nc1 [Example 86, 4-[6-Chloro-3-(5-methoxypyridin-2-yl)-1H-pyrrolo[3,2-b]pyridin-2-yl]pyridin-2-amine] | 0.008 | > 15
10 | COc1ccc(-c2c(-c3ccnc(NC(C)=O)c3)[nH]c3cc(S(C)(=O)=O)cnc23)nc1 [Example 91, N-{4-[6-Methanesulfonyl-3-(5-methoxypyridin-2-yl)-1H-pyrrolo[3,2-b]pyridin-2-yl]pyridin-2-yl}acetamide] | 0.019 | > 15
11 | C=Cc1ccnc2c(-c3cccc(C(F)F)n3)c(-c3ccnc(NC(C)=O)c3)[nH]c12 [Example 127, N-(4-{3-[6-(Difluoromethyl)pyridin-2-yl]-7-ethenyl-1H-pyrrolo[3,2-b]pyridin-2-yl}pyridin-2-yl)acetamide] | 0.001 | 6.65
12 | CCC(OC(N)=O)c1ccnc2c(-c3ccc(OC)nc3)c(-c3ccnc(NC(C)=O)c3)[nH]c12 (stereo not drawn) [Example 302, 1-(2-(2-Acetamidopyridin-4-yl)-3-(6-methoxypyridin-3-yl)-1H-pyrrolo[3,2-b]pyridin-7-yl)propyl carbamate] | 0.001 | 0.723
13 | COc1ccc(-c2c(-c3ccnc(NC(C)=O)c3)[nH]c3cc(N4CCC(NC(C)=O)CC4)cnc23)nc1 [Example 159, N-(4-(6-(4-Acetamidopiperidin-1-yl)-3-(5-methoxypyridin-2-yl)-1H-pyrrolo[3,2-b]pyridin-2-yl)pyridin-2-yl)acetamide] | 0.0311 | > 15
14 | CC(=O)Nc1cc(-c2[nH]c3c(OCCN4CCCC4)ccnc3c2-c2cccc(C(F)F)n2)ccn1 [Example 126, N-(4-{3-[6-(Difluoromethyl)pyridin-2-yl]-7-[2-(pyrrolidin-1-yl)ethoxy]-1H-pyrrolo[3,2-b]pyridin-2-yl}pyridin-2-yl)acetamide] | 0.009 | > 15
15 | COc1ccc(-c2c(-c3ccnc(NC(=O)CN4CC[C@H](O)C4)c3)[nH]c3cc(OC)cnc23)nc1 [Example 121, 2-[(3S)-3-Hydroxypyrrolidin-1-yl]-N-{4-[6-methoxy-3-(5-methoxypyridin-2-yl)-1H-pyrrolo[3,2-b]pyridin-2-yl]pyridin-2-yl}acetamide] | 0.001 | > 15
